From patent US12109292B2, “Bioflavonoid compositions and their use” (Oraldent Limited, priority 2018, dated 2024)

Key:
Escherichia coli [1] = assay: Pre-treatment of high binding plates with Citrox/ε-polylysine, then Escherichia coli growth inhibition (turbidity); format: cell-based
Protocol: High Binding plates were pre-treated with 0.1 mL of pure Citrox/ε-Polylysine solutions incubated 60′ at room temperature. The concentrations of Citrox range from 0.06% to 4%. The ε-Polylysine concentrations range from 30 mg/L to 120 mg/L. The wells have been emptied and rinsed with 0.2 mL bi-distilled water. 0.2 mL of a diluted Escherichia coli culture (turbidity: 5 m OD at 600 nm) were given to the pre-treated wells and incubated for 3 hours at 37° C. Turbidity were measured at 600 nm and percentage of growth inhibition in comparison to untreated well calculated (FIG. 1).

Streptococcus mutans = assay: Inhibition zone assay on agar plate; format: cell-based; conditions: 48 h at 37° C. anaerobe
Protocol: The antibacterial activity of ε-polylysine was semi-quantitatively assessed in a inhibition zone assay. 0.1 mL of a confluent Streptococcus mutans culture was spread over a Brain Heart Infusion (BHI) agar plate. Filter platelets (5 mm diameter) soaked with 0.01 mL substance were applied on plate. Plates were incubated 48 h at 37° C. under anaerobe conditions. The diameter of outer limit of the inhibition zones were measured, the diameter of the platelet deduced and the half result considered the radius of inhibition rings. Concentrations were tested in triplicate and their results averaged.

Escherichia coli [2] = assay: Direct exposure of Escherichia coli mini cultures, minimal inhibitory concentration by turbidity; format: cell-based; conditions: E. coli, 5 hours at 37° C., extrapolated from FIG. 2
Protocol: Growth inhibition was monitored by measuring turbidity of mini cultures after 5 hours of aerobe incubation at 37° C. under agitation. Solutions were diluted to the half in cascade.

S. mutans = assay: Short exposure assay (bactericidal effect), colony count; format: cell-based, Streptococcus mutans; conditions: 0.05%; 10 minutes; 5000 CFU inoculum
Protocol: The short-term antibacterial activity of Citrox was semi-quantitatively assessed in a short exposure assay. A S. mutans culture, diluted in order to contain 5000 Colony Forming Units, was incubated for 10 minutes in presence of the antibacterial substance and extemporarily plated onto a BHI agar plate. Plates were incubated at 37° C. under anaerobe conditions and colony counted. […] Citrox 0.5% reduced the count of CFU to the half (<3000 CFU).

Compound | highest ε-polylysine concentration that does not affect significantly the antibacterial effect of Citrox pretreatment (Escherichia coli [1]) | effect of plate-absorbed substance on growth of bacteria in suspension (Escherichia coli [1]; high binding plate, substance absorbed onto solid surface) | Radius of inhibition rings (Streptococcus mutans; 10 mg/L) | Radius of inhibition rings (Streptococcus mutans; 100 mg/L) | Radius of inhibition rings (Streptococcus mutans; 1000 mg/L) | Minimal inhibitory concentration (MIC) (Escherichia coli [2]) | colony formation after short exposure (S. mutans) | Radius of inhibition rings (Streptococcus mutans; 0.1%) | Radius of inhibition rings (Streptococcus mutans; 1%)
ε-Polylysine | 30 mg/L | does not affect the growth of bacteria in suspension | 0.5 mm | 2.5 mm | 6.5 mm | 4 µg/mL |  |  | 
OO [Water peroxide, reference compound] |  |  |  |  |  |  | complete absence of colony formation | 1.5 mm | 5 mm
